Consider 1 compound from patent publication US12122775B1, “Substituted pyrido[4,3-e]pyrrolo[1,2-a]pyrazines as CK2 inhibitors” (KING FAISAL UNIVERSITY, priority 2024, dated 2024).

The subject of one experiment is HL60 (leukemia). As to the kind of experiment: In vitro cytotoxic activity MTT assay, HL60. The experiment is classed as cell-based. Conditions: Homo sapiens, HL-60; HL60 (leukemia) cells, exposed for 96 hours; read-out: Cytotoxicity activity IC50 (50% inhibition of cell proliferation). As for the experimental part:
(§1) Compounds 1-16 were screened for their in vitro cytotoxic activity utilizing a 3-(4,5-dimethyl-thiazol-2-yl)-2,5-diphenyltetrazolium bromide (MTT) assay against selected cancer human cell lines consisting of PC3 (prostate), HCT116 (colon), A375 (melanoma), H1299 (lung), MIAPaCa-2 (pancreas), HL60 (leukemia), MCF7 (breast), MDA-MB-231 (breast) (T. Mosmann, J. Immunol. Meth., 1983, 65, 55-63). The cells were cultured at 37° C. in RMPI1640 medium supplemented with 10% fetal bovine serum, 50 IU/mL penicillin, and 50 μg/mL streptomycin in a 5% CO2 incubator. All cells were sub-cultured 3 times/week by trypsinisation. Viable cells were seeded and allowed to adhere for 12 hours before a test drug was added in 96-well plates at an initial density of 1.0×10^5 cells/mL. Tumor cell lines were separately exposed to various concentrations of the tested compounds followed by incubation at a temperature of 37° C. during 96 hours inside a medium of fresh RMPI 1640. Cells were subsequently incubated at 37° C. using MTT at 0.5 mg/mL during 4 hours. After removal of supernatant, formazan crystals were dissolved in isopropanol and the optical density was measured at 570 nm. CX-4945 was used as a positive control.

The subject of a further experiment is A375 (melanoma). As to the kind of experiment: In vitro cytotoxic activity MTT assay, A375. The experiment is classed as cell-based. Conditions: Homo sapiens, A-375; A375 (melanoma) cells, exposed for 96 hours; read-out: Cytotoxicity activity IC50 (50% inhibition of cell proliferation). As for the experimental part: as §1
The next experiment deals with MIAPaCa-2 (pancreas). As to the kind of experiment: In vitro cytotoxic activity MTT assay, MIAPaCa-2. The experiment is classed as cell-based. Conditions: Homo sapiens, MIA PaCa-2; MIAPaCa-2 (pancreas) cells, exposed for 96 hours; read-out: Cytotoxicity activity IC50 (50% inhibition of cell proliferation). As for the experimental part: as §1
Another experiment relates to H1299 (lung). As to the kind of experiment: In vitro cytotoxic activity MTT assay, H1299. The experiment is classed as cell-based. Conditions: Homo sapiens, NCI-H1299; H1299 (lung) cells, exposed for 96 hours; read-out: Cytotoxicity activity IC50 (50% inhibition of cell proliferation). As for the experimental part:
as §1

The subject of another experiment is HCT116 (colon). As to the kind of experiment: In vitro cytotoxic activity MTT assay, HCT116. The experiment is classed as cell-based. Conditions: Homo sapiens, HCT-116; HCT116 (colon) cells, exposed for 96 hours; read-out: Cytotoxicity activity IC50 (50% inhibition of cell proliferation). As for the experimental part:
as §1

Another experiment deals with MDA-MB-231 (breast). Kind of experiment: In vitro cytotoxic activity MTT assay, MDA-MB-231. In kind it is cell-based. Conditions: Homo sapiens; MDA-MB-231 (breast) cells, exposed for 96 hours; read-out: Cytotoxicity activity IC50 (50% inhibition of cell proliferation). As for the experimental part: as §1
Experiment [1] deals with T1, recombinant human CK2 (RRββ-holoenzyme) (Homo sapiens, UniProt P68400).
T1 construct: purchased Millipore
As to the kind of experiment: CK2 Kinase Assay (radiometric, [γ-33P] ATP). In kind it is biochemical. Conditions: final ATP concentration 15 μM, 10 min at 30° C., eight concentrations; read-out: protein kinase CK2 activity IC50. As for the experimental part:
CK2 Kinase Assay was conducted using the protocol as described in Pierre F. et al; J. Med. Chem. 2011, 54, 635-654. The tested compounds in aqueous solution were added at a volume of 10 μL to a reaction mixture comprising 10 μL of assay dilution buffer (ADB; 20 mM MOPS, pH 7.2, 25 mM β-glycerol phosphate, 5 mM EGTA, 1 mM sodium orthovanadate, and 1 mM dithiothreitol), 10 μL of substrate peptide (RRRDDDSDDD, dissolved in ADB at a concentration of 1 mM), 10 μL of recombinant human CK2 (RRββ-holoenzyme, 25 ng dissolved in ADB; Millipore). Reactions were initiated by the addition of 10 μL of ATP solution (90%75 mM MgCl2, 75 μM ATP (final ATP concentration: 15 μM) dissolved in ADB; 10% [γ-33P] ATP (stock 1 mCi/100 μL; 3000 Ci/mmol (Perkin-Elmer) and maintained for 10 min at 30° C. The reactions were quenched with 100 μL of 0.75% phosphoric acid and then transferred to and filtered through a phosphor cellulose filter plate (Millipore). After washing each well five times with 0.75% phosphoric acid, the plate was dried under vacuum for 5 min and, following the addition of 15 μL of scintillation fluid to each well, the residual radioactivity was measured using a Wallac […]. The IC50 values were derived from eight concentrations of test inhibitors.

A further experiment has as its system MCF7 (breast). Kind of experiment: In vitro cytotoxic activity MTT assay, MCF7. The experiment is classed as cell-based. Conditions: Homo sapiens; MCF7 (breast) cells, exposed for 96 hours; read-out: Cytotoxicity activity IC50 (50% inhibition of cell proliferation). As for the experimental part:
as §1

For the next experiment, the system named is PC3 (prostate). Kind of experiment: In vitro cytotoxic activity MTT assay, PC3. In kind it is cell-based. Conditions: Homo sapiens, Prostate cell; PC3 (prostate) cells, exposed for 96 hours; read-out: Cytotoxicity activity IC50 (50% inhibition of cell proliferation). As for the experimental part: as §1

T1 sequence (P68400 whole entry): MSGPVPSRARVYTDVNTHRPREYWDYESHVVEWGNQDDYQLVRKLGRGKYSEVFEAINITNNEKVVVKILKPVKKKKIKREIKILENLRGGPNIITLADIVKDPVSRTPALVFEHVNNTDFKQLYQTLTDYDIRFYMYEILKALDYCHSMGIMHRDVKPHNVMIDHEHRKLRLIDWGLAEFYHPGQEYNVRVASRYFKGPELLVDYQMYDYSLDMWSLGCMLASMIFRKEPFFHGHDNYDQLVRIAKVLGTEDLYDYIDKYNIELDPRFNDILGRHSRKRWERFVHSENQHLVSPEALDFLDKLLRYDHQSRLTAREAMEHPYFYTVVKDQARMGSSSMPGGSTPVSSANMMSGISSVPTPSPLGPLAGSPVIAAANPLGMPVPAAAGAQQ
T1 sequence (P67870 whole entry partner): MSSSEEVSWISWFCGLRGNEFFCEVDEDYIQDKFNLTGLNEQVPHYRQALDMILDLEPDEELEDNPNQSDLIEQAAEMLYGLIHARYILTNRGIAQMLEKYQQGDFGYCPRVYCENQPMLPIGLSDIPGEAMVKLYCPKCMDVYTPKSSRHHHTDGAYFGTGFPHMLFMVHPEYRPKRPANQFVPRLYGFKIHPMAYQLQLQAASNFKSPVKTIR

With `O=C(O)c1ccn2c1c(Nc1cccc(Cl)c1)nc1ccncc12` [Compound 1, 6-((3-chlorophenyl)amino)pyrido[4,3-e]pyrrolo[1,2-a]pyrazine-7-carboxylic acid], the IC50 in the experiment with HL60 (leukemia) amounted to 3.2 µM; in the experiment on A375 (melanoma) it was 4.6 µM; in the experiment on MIAPaCa-2 (pancreas), 1.7 µM; in the experiment with H1299 (lung) it was 2.1 µM; in the experiment with HCT116 (colon), 1.5 µM; in the experiment on MDA-MB-231 (breast), 5.3 µM. The results for the IC50 (in [1]; in the experiment on MCF7 (breast); in the experiment with PC3 (prostate)) were 0.091 µM, 5.9 µM and 2.8 µM, respectively.
